What all share (test): DSF assay
Common to all, as to format: binding
Holding throughout (conditions): 20 µM compound

In one test the target is T1, DYRK1A (Homo sapiens, UniProt Q13627).
T1 construct: purchased in-house DSF panel (SGC-style construct names; the trailing A/B is a construct suffix)

The target of another test is T2, MAPK13A (Homo sapiens, UniProt O15264).
T2 construct: purchased in-house DSF panel (SGC-style construct names; the trailing A/B is a construct suffix)
T2 sequence (O15264 1-365): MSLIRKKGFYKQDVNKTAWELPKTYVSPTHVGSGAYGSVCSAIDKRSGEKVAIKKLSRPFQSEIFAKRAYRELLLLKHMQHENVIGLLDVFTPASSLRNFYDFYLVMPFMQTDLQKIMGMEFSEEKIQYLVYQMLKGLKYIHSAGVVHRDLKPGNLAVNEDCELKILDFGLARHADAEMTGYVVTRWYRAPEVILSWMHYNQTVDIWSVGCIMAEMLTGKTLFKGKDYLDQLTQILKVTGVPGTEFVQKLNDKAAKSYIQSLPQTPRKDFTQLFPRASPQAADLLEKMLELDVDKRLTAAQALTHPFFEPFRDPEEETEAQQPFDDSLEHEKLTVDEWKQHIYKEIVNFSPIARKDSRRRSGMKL

The target in another test is T3, BMP2KA (Homo sapiens, UniProt Q9NSY1).
T3 construct: purchased in-house DSF panel (SGC-style construct names; the trailing A/B is a construct suffix)
As to the method: (§1) Excitation and emission filters […]
(§2) curve. […] Measurements were
(§3) Kinobeads selectivity profiling of PROTACs
(§4) (Multiplexion, Heidelberg, Germany).
(§5) The cell lysate was ultracentrifuged and diluted
(§6) NaF, 1 mM DTT, protease inhibitors and phosphatase inhibitors to a final concentration of 5 mg/ml as determined by Bradford assay. For selectivity profiling of compounds the cell lysate (2.5 mg of total proteins per pulldown) was pre-incubated with increasing compound […]
(§7) µM) for 45 min at 4 °C in an end-over-end shaker. Subsequently, lysates were incubated with Kinobeads epsilon (17 µL settled beads) for 30 min at 4 °C. To assess the degree of protein depletion from the lysates by Kinobeads, the flow-through of the DMSO control was recovered

The target in another test is T4, BRD4 (Homo sapiens, UniProt O60885).
T4 construct: purchased in-house DSF panel (SGC-style construct names; the trailing A/B is a construct suffix)
As to the method:
as §1, §2, §3, §4, §5, §6, §7

A further test deals with T5, CAMK2DA (Homo sapiens, UniProt Q13557).
T5 construct: purchased in-house DSF panel (SGC-style construct names; the trailing A/B is a construct suffix)
As to the method: as §1, §2, §3, §4, §5, §6, §7

For a further test, the system named is CDC42BPAA. Here is the method:
as §1, §2, §3, §4, §5, §6, §7

The target in a further test is T6, CK2A1A (Homo sapiens, UniProt P68400).
T6 construct: purchased in-house DSF panel (SGC-style construct names; the trailing A/B is a construct suffix)
As to the method: as §1, §2, §3, §4, §5, §6, §7

The target in another test is T7, FGFR3A (Homo sapiens, UniProt P22607).
T7 construct: purchased in-house DSF panel (SGC-style construct names; the trailing A/B is a construct suffix)
As to the method:
as §1, §2, §3, §4, §5, §6, §7

The target of another test is T8, MAP2K1A (Homo sapiens, UniProt Q02750).
T8 construct: purchased in-house DSF panel (SGC-style construct names; the trailing A/B is a construct suffix)
Here is the method: as §1, §2, §3, §4, §5, §6, §7

For another test, the target named is T9, MARK3A (Homo sapiens, UniProt P27448).
T9 construct: purchased in-house DSF panel (SGC-style construct names; the trailing A/B is a construct suffix)
As to the method: as §1, §2, §3, §4, §5, §6, §7

In a further test the target is T10, MST4A (Homo sapiens, UniProt Q9P289).
T10 construct: purchased in-house DSF panel (SGC-style construct names; the trailing A/B is a construct suffix)
As to the method: as §1, §2, §3, §4, §5, §6, §7

The next test concerns the target T11, NEK2A (Homo sapiens, UniProt P51955).
T11 construct: purchased in-house DSF panel (SGC-style construct names; the trailing A/B is a construct suffix)
T11 sequence (P51955 1-271): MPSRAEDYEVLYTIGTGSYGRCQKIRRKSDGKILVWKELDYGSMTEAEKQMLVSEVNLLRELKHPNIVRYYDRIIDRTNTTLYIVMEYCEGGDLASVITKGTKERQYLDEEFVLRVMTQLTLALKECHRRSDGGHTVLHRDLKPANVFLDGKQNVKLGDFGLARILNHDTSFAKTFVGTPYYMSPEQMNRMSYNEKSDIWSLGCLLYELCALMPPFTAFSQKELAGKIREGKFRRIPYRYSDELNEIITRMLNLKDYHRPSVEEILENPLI
Here is the method:
as §1, §2, §3, §4, §5, §6, §7

The target in the next test is T12, PKMYT1A (Homo sapiens, UniProt Q99640).
T12 construct: purchased in-house DSF panel (SGC-style construct names; the trailing A/B is a construct suffix)
T12 sequence (Q99640 75-362): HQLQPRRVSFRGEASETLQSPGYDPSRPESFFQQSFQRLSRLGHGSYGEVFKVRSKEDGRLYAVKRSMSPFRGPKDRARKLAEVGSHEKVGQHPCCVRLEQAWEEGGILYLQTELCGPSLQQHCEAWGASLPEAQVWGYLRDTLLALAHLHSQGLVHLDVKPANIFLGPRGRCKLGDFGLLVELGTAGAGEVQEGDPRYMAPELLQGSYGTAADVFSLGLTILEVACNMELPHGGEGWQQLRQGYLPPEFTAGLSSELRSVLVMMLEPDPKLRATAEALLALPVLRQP
Here is the method:
as §1, §2, §3, §4, §5, §6, §7

For the next test, the target named is T13, SLKA (Homo sapiens, UniProt Q9H2G2).
T13 construct: purchased in-house DSF panel (SGC-style construct names; the trailing A/B is a construct suffix)
As to the method:
as §1, §2, §3, §4, §5, §6, §7

Another test addresses T14, SRPK1 (Homo sapiens, UniProt Q96SB4).
T14 construct: purchased in-house DSF panel (SGC-style construct names; the trailing A/B is a construct suffix)
As to the method:
as §1, §2, §3, §4, §5, §6, §7

The target in a further test is T15, STK38LA (Homo sapiens, UniProt Q9Y2H1).
T15 construct: purchased in-house DSF panel (SGC-style construct names; the trailing A/B is a construct suffix)
Here is the method:
as §1, §2, §3, §4, §5, §6, §7

The target in the next test is T16, MELKA (Homo sapiens, UniProt Q14680).
T16 construct: purchased in-house DSF panel (SGC-style construct names; the trailing A/B is a construct suffix)

A further test has as its target T17, MST3A (Homo sapiens, UniProt Q9Y6E0).
T17 construct: purchased in-house DSF panel (SGC-style construct names; the trailing A/B is a construct suffix)

For another test, the target named is T18, NEK7A (Homo sapiens, UniProt Q8TDX7).
T18 construct: purchased in-house DSF panel (SGC-style construct names; the trailing A/B is a construct suffix)

The next test deals with T19, PCTK1A (Homo sapiens, UniProt Q00536).
T19 construct: purchased in-house DSF panel (SGC-style construct names; the trailing A/B is a construct suffix)

For a further test, the target named is T20, STK17B (Homo sapiens, UniProt O94768).
T20 construct: purchased in-house DSF panel (SGC-style construct names; the trailing A/B is a construct suffix)
T20 sequence (O94768 25-329): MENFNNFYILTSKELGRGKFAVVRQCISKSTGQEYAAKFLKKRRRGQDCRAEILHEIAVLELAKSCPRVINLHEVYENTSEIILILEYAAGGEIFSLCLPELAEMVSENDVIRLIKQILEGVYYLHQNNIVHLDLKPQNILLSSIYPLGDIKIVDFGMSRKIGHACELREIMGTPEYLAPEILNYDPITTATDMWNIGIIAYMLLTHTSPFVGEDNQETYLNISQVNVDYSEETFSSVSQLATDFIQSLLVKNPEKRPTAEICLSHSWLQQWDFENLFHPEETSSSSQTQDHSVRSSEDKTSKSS

Usually ΔTm stands for the shift of the melting midpoint relative to a reference.

T6 sequence (P68400 whole entry): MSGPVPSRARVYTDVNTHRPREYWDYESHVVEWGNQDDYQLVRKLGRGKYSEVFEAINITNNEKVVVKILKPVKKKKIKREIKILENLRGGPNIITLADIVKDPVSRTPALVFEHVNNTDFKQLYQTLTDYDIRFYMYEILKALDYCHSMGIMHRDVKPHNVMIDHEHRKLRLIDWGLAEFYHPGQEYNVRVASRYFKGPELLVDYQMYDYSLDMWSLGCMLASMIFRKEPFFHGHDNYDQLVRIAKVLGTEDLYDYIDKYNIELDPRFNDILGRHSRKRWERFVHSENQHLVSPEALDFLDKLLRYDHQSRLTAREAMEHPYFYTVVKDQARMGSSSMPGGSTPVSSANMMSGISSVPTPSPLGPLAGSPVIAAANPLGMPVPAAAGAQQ
T16 sequence (Q14680 1-340): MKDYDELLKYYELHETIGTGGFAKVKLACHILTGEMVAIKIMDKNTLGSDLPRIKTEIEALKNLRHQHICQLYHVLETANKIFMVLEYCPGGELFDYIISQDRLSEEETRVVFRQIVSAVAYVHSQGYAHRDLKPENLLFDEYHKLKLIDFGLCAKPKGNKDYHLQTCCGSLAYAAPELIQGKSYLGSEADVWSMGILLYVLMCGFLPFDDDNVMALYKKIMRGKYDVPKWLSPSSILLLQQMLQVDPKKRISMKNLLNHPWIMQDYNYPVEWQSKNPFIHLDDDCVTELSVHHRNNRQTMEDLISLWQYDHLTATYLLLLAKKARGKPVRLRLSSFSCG
T15 sequence (Q9Y2H1 90-453): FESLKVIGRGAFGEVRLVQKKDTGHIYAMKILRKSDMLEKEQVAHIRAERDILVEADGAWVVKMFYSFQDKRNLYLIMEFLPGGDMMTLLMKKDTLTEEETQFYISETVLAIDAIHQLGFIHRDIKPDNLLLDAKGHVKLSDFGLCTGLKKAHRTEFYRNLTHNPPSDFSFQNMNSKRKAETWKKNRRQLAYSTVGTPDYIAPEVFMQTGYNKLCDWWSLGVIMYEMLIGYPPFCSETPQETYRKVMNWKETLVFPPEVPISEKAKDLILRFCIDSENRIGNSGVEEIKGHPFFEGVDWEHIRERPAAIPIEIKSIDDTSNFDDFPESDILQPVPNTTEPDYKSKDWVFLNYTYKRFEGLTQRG
T10 sequence (Q9P289 1-300): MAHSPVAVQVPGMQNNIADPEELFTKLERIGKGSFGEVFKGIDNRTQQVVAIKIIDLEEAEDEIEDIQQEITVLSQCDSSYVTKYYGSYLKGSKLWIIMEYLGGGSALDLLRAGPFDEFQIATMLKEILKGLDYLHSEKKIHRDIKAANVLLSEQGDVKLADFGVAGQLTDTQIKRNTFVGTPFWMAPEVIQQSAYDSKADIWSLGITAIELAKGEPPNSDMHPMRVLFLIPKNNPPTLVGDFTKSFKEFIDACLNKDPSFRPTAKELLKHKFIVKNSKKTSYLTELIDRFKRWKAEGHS
T5 sequence (Q13557 11-309): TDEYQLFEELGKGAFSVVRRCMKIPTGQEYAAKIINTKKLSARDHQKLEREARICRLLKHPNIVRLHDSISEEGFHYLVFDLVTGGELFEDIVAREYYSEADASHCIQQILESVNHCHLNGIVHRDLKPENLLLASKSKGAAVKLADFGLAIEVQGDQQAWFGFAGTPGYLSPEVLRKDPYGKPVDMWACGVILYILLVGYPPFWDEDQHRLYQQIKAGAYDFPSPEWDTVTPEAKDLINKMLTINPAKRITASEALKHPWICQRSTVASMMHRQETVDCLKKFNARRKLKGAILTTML
T7 sequence (P22607 455-768): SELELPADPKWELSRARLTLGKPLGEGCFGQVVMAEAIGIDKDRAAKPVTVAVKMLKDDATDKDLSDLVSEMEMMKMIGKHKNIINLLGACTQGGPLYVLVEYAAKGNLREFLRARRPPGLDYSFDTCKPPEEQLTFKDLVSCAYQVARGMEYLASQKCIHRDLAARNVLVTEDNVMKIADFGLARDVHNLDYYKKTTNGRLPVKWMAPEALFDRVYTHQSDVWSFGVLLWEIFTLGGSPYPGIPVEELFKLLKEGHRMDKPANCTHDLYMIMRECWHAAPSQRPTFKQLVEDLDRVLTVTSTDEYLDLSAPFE
T14 sequence (Q96SB4 whole entry): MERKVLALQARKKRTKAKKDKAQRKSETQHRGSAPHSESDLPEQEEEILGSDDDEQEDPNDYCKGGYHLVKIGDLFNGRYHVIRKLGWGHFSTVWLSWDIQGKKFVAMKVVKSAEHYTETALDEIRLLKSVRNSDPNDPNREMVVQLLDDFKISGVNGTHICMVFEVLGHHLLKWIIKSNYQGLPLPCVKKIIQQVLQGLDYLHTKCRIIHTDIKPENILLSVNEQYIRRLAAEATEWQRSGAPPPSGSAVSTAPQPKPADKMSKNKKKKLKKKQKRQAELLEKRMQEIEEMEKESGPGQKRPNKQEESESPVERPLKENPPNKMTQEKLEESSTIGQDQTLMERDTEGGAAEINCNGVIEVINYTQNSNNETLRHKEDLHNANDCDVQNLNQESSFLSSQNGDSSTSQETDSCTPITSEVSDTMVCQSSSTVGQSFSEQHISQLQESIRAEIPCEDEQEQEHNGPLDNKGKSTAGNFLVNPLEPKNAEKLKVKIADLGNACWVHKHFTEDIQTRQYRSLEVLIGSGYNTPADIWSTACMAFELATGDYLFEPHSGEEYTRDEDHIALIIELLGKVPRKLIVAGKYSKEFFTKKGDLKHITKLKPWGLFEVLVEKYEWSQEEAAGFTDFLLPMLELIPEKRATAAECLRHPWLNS
T19 sequence (Q00536 163-478): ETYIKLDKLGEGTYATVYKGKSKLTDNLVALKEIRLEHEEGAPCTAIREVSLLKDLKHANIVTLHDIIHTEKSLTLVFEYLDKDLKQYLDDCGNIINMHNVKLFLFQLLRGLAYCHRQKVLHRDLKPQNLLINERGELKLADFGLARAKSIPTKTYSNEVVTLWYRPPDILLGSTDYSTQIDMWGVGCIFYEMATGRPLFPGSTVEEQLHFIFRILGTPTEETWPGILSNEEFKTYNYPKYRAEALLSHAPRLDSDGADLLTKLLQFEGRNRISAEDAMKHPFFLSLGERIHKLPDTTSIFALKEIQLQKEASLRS
T3 sequence (Q9NSY1 38-345): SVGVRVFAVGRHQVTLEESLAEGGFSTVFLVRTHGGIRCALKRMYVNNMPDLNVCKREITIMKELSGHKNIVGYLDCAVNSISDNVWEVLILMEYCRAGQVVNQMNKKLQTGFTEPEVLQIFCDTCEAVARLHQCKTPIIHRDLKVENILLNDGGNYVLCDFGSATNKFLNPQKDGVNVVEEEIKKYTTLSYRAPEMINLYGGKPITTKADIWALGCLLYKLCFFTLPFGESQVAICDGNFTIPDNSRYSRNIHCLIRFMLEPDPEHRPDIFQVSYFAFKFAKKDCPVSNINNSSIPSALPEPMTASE
T8 sequence (Q02750 62-393): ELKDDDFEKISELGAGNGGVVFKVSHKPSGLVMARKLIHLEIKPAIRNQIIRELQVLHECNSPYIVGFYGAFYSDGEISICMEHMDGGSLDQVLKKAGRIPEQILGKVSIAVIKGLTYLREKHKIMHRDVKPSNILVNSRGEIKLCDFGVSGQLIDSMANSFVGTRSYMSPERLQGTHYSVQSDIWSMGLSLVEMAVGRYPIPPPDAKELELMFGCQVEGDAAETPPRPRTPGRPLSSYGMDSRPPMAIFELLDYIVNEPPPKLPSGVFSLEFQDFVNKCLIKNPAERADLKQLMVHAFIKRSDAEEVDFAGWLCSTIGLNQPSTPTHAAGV
T17 sequence (Q9Y6E0 4-301): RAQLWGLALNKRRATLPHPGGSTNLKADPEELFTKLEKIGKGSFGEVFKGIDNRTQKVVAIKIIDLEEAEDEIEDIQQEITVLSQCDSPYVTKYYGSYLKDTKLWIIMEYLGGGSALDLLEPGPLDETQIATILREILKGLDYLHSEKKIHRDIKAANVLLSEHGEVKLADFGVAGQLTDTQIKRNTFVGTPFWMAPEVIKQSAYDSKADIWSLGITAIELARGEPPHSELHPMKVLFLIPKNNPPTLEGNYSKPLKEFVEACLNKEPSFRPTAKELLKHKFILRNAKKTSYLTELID
T18 sequence (Q8TDX7 34-299): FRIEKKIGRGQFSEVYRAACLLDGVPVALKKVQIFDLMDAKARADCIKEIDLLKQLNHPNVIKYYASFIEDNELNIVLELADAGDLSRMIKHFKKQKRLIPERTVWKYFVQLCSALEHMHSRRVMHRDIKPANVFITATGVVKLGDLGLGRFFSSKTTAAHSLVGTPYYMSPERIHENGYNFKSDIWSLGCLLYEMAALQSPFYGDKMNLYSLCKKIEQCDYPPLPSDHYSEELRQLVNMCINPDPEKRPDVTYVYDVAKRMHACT
T9 sequence (P27448 56-307): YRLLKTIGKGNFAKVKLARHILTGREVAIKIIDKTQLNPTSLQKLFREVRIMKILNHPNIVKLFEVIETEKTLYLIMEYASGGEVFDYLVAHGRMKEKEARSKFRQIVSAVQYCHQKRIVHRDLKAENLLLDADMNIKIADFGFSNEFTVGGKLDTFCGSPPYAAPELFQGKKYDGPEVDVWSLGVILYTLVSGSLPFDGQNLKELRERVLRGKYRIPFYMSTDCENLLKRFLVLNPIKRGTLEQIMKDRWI

As to `CC(C)(C)OC(=O)NCCOCCOCCOCCOCCC(=O)N1CCN(c2cc(Nc3cc(C4CC4)[nH]n3)nc(Nc3ccc(CC#N)cc3)n2)CC1` [4-L], the thermal shift (ΔTm) at 20 µM at DYRK1A worked out at 7.48 °C; on MAPK13A it was 3.4 °C; at BMP2KA, 21.5 °C; at BRD4, 0.18 °C; at CAMK2DA, 2.15 °C; on CK2A1A it was 3.81 °C. In addition, the ΔTm at 20 µM on FGFR3A was 11.4 °C; at MAP2K1A it was 1.66 °C; at MARK3A, 5.32 °C; on MST4A it was 9.01 °C; at NEK2A it was 2.97 °C; on PKMYT1A, -2.93 °C. Moreover, the ΔTm at 20 µM at SLKA amounted to 11.3 °C; at SRPK1, 0.76 °C; at STK38LA, 10.2 °C; on MELKA, 10.1 °C; at MST3A, 8.31 °C; on NEK7A, 0.39 °C. Further, the figures for the ΔTm at 20 µM at PCTK1A and at STK17B were 4.55 °C and 1.6 °C, respectively. Moreover, the ΔTm in the test with CDC42BPAA is -2.71 °C.
For the compound `CCOC(=O)c1cc(Nc2cc(C3CC3)[nH]n2)nc(Nc2ccc(CC#N)cc2)n1` [compound 5], the ΔTm at 20 µM on DYRK1A is 6.85 °C; at MAPK13A, 3.76 °C; on BMP2KA, 18 °C; on BRD4, 1.16 °C; on CAMK2DA, 3.37 °C; on CK2A1A, 3.87 °C. In addition, the ΔTm at 20 µM was 8.45 °C at FGFR3A; 1.56 °C on MAP2K1A; 5.37 °C at MARK3A; 5.53 °C on MST4A; 2.25 °C at NEK2A; -1.04 °C on PKMYT1A. The thermal shift (ΔTm) at 20 µM at SLKA turned out to be 9.06 °C; at SRPK1 it was 4.31 °C; at STK38LA, 6.74 °C; on MELKA, 9.78 °C; at MST3A it was 7.56 °C; on NEK7A, 0.0755 °C. Moreover, the thermal shift (ΔTm) at 20 µM on PCTK1A is 5.96 °C; at STK17B, 2.58 °C. In addition, in the test with CDC42BPAA, the ΔTm was -2.55 °C.
With `CC(C)(C)OC(=O)NCCCOCCOCCOCCCNC(=O)c1cc(Nc2cc(C3CC3)[nH]n2)nc(Nc2ccc(CC#N)cc2)n1` [5-L], the ΔTm at 20 µM is 8.01 °C at DYRK1A; 3.98 °C on MAPK13A; 17.7 °C at BMP2KA; -0.79 °C at BRD4; 3.75 °C at CAMK2DA; 5.58 °C at CK2A1A. The ΔTm at 20 µM at FGFR3A was 7 °C; at MAP2K1A, 1.17 °C; at MARK3A, 3.97 °C; at MST4A, 4.64 °C; on NEK2A it was 0.77 °C; at PKMYT1A, -0.12 °C. The shift in melting temperature (ΔTm) at 20 µM worked out at 8.84 °C at SLKA; 2.8 °C on SRPK1; 7.04 °C at STK38LA; 8.44 °C on MELKA; 3.47 °C on MST3A; 0.5 °C on NEK7A. Further, the ΔTm at 20 µM at PCTK1A is 4.53 °C; at STK17B, 1.81 °C. Besides, in the test with CDC42BPAA, the ΔTm was -3.72 °C.

The values above are taken from paper PMC11851430, “Workflow for E3 Ligase Ligand Validation for PROTAC Development” (ACS Chemical Biology, 2025).
